# Assay results published in US9249131B2, “Modulators of ATP-binding cassette transporters” (Vertex Pharmaceuticals Incorporated, priority 2003, dated 2016).
# Biological target: T1, ΔF508-CFTR (Homo sapiens, UniProt P13569, DEL508-508)
# T1 construct: expressed in transfected cells; host or cells: NIH3T3 mouse fibroblasts stably expressing ΔF508-CFTR for the optical, whole-cell and single-channel assays; Fisher rat epithelial (FRT) cells for Ussing chamber follow-up
# Test: Assays for ΔF508-CFTR correction and potentiator properties (membrane potential optical and electrophysiological methods)
# Format: cell-based
# Conditions: CFTR modulation; for % Activity: % Efficacy; for EC50: tested using the above methods
# Method in brief: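 NIH3T3 mouse fibroblasts stably expressing ΔF508-CFTR were used, with membrane potential read by DiSBAC2(3)/CC2-DMPE FRET on VIPR. Correctors: 16 h compound exposure at 37 °C, then activation with forskolin plus genistein in Cl⁻-free medium. Potentiators: cells held 24 h at 27 °C, compound added in Cl⁻-free medium, 2-10 μM forskolin 22 s later (final Cl⁻ 28 mM).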
# T1 sequence (P13569 with tags, fused parts or gaps DEL508-508): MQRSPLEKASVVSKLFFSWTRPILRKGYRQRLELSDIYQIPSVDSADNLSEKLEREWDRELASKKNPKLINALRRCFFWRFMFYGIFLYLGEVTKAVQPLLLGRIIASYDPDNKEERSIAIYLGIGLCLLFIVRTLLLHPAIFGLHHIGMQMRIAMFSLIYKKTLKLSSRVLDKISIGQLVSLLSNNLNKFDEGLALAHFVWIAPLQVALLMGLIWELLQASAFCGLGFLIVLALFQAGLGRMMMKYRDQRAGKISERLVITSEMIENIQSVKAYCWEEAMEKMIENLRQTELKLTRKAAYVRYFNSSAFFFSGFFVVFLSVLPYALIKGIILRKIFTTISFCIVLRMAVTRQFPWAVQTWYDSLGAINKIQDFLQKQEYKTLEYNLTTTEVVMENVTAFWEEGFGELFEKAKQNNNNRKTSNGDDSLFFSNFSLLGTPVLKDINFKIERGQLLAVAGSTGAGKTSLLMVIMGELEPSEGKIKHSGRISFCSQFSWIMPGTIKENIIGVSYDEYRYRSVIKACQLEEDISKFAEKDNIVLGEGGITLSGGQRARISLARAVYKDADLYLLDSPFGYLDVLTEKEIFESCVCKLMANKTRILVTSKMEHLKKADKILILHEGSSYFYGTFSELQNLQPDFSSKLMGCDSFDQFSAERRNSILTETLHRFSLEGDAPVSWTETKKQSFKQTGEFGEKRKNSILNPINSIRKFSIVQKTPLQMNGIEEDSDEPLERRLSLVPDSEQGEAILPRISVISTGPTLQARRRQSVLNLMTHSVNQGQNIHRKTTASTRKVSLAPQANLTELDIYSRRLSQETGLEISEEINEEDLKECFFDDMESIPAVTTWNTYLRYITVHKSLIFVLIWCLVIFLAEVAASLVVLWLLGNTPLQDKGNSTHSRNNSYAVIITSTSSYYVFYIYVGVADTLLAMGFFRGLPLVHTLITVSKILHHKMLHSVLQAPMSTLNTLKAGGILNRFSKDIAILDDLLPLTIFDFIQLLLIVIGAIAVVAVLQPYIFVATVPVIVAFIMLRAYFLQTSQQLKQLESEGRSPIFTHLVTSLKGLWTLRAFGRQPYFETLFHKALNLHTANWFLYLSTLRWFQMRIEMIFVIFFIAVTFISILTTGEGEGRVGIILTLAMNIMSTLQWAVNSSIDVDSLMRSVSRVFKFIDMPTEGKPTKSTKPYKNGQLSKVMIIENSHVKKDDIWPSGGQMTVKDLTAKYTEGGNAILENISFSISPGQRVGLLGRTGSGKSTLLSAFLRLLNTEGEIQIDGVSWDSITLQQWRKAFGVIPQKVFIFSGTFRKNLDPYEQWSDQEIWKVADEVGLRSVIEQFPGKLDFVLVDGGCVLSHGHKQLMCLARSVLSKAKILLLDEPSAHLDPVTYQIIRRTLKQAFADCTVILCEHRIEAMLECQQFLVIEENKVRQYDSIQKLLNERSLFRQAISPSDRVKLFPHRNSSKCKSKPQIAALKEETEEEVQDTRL
Structure (SMILES),% Activity,EC50 [µM]
CCC(C(=O)Nc1ncc(Cc2ccccc2)s1)c1ccccc1 (centres unmarked) [compound 96],++ (“++” means between 25% to 100%),10 to 25
CC(C)(C)C(=O)Nc1nc(-c2ccccc2)c(-c2ccccc2)s1 [compound 112],++ (“++” means between 25% to 100%),< 10
O=C(Nc1nc(-c2ccccc2)c(-c2ccccc2)s1)C1CCCC1 [compound 113],++ (“++” means between 25% to 100%),< 10
O=C(O)CCCC(=O)Nc1nc(-c2ccccc2)c(-c2ccccc2)s1 [compound 61],++ (“++” means between 25% to 100%),10 to 25
O=C(Nc1ncc(Cc2ccccc2)s1)C1c2ccccc2-c2ccccc21 [compound 93],+++ (“+++” means >100%),< 10
O=C(Nc1nc(-c2ccc(Br)cc2)cs1)c1cccc(Cl)c1 [compound 43],++ (“++” means between 25% to 100%),< 10
CC(C(=O)Nc1ncc(Cc2ccc(Cl)cc2)s1)c1ccccc1 (centres unmarked) [compound 119],+++ (“+++” means >100%),< 10
O=C(Nc1ncc(Cc2cc(Cl)ccc2Cl)s1)C1CCCCC1 [compound 30],+++ (“+++” means >100%),< 10
COc1cccc(-c2csc(NC(=O)c3ccccc3OC)n2)c1 [compound 80],++ (“++” means between 25% to 100%),10 to 25
COc1ccccc1C(=O)Nc1nc(-c2ccccc2OC)cs1 [compound 79],++ (“++” means between 25% to 100%),10 to 25
O=C(Nc1nc(-c2ccccc2)cs1)C12CC3CC(CC(C3)C1)C2 [compound 17],++ (“++” means between 25% to 100%),< 10
COc1cccc(-c2csc(NC(=O)c3ccccc3)n2)c1 [compound 81],++ (“++” means between 25% to 100%),10 to 25
CCC(C(=O)Nc1ncc(Cc2ccc(Cl)cc2)s1)c1ccccc1 (centres unmarked) [compound 120],++ (“++” means between 25% to 100%),< 10
CC(C)C(C(=O)Nc1nc(-c2ccncc2)cs1)c1ccccc1 (centres unmarked) [compound 35],++ (“++” means between 25% to 100%),10 to 25
O=C(Nc1ncc(Cc2ccccc2Cl)s1)C(c1ccccc1)C1CCCC1 (centres unmarked) [compound 102],+++ (“+++” means >100%),< 10
CCC(C(=O)Nc1nc(-c2ccncc2)cs1)c1ccccc1 (centres unmarked) [compound 58],++ (“++” means between 25% to 100%),10 to 25
O=C(Nc1nc(-c2ccccc2)c(-c2ccccc2)s1)c1ccccc1 [compound 68],++ (“++” means between 25% to 100%),< 10
O=C(Nc1nc(-c2ccccc2)c(-c2ccccc2)s1)c1ccc(Cl)c(Cl)c1 [compound 73],++ (“++” means between 25% to 100%),10 to 25
Cc1cccc2sc(NC(=O)c3cccc(Br)c3)nc12 [compound 42],++ (“++” means between 25% to 100%),< 10
Cc1cccc(C(=O)Nc2nc(-c3ccccc3)c(-c3ccccc3)s2)c1 [compound 70],+++ (“+++” means >100%),< 10
O=C(Nc1nc(-c2ccccc2)c(-c2ccccc2)s1)C1CC1 [compound 111],+++ (“+++” means >100%),< 10
O=C(Nc1ncc(Cc2cccc(Cl)c2)s1)c1ccccc1 [compound 23],++ (“++” means between 25% to 100%),< 10
Cc1ccc(C(=O)Nc2nc(-c3ccccc3)c(C)s2)cc1 [compound 44],+++ (“+++” means >100%),10 to 25
Cc1ccc(-c2csc(NC(=O)c3ccccc3)n2)cc1 [compound 48],+++ (“+++” means >100%),< 10
O=C(Nc1ncc(Cc2ccccc2Cl)s1)C(c1ccccc1)C1CCCCC1 (centres unmarked) [compound 91],+++ (“+++” means >100%),< 10
COc1ccccc1C(=O)Nc1nc(-c2ccccc2)cs1 [compound 76],+++ (“+++” means >100%),10 to 25
O=C(Nc1ncc(Cc2cccc(Cl)c2)s1)C1Cc2ccccc21 (centres unmarked) [compound 126],++ (“++” means between 25% to 100%),25 to 60
O=C(O)CSCC(=O)Nc1nc(-c2ccccc2)c(-c2ccccc2)s1 [compound 20],++ (“++” means between 25% to 100%),10 to 25

# Continued, values first:
% Activity,EC50 [µM],Structure (SMILES)
++ (“++” means between 25% to 100%),10 to 25,CCC(C(=O)Nc1ncc(Cc2ccccc2Cl)s1)N(CC)CC (centres unmarked) [compound 221]
++ (“++” means between 25% to 100%),< 10,CC(C(=O)Nc1ncc(Cc2cccc(Cl)c2)s1)c1ccccc1 (centres unmarked) [compound 127]
++ (“++” means between 25% to 100%),10 to 25,O=C(Nc1nc(-c2ccccc2Cl)cs1)c1cccc(Cl)c1 [compound 229]
++ (“++” means between 25% to 100%),10 to 25,O=C(Nc1nc(-c2ccccc2)c(-c2ccccc2)s1)C(c1ccccc1)C1CCCCC1 (centres unmarked) [compound 177]
++ (“++” means between 25% to 100%),,O=C(Nc1ncc(Cc2cccc(Cl)c2)o1)c1ccccc1 [compound 158]
++ (“++” means between 25% to 100%),25 to 60,O=C(Cc1ccccc1)Nc1ncc(Cc2ccccc2Cl)o1 [compound 194]
++ (“++” means between 25% to 100%),25 to 60,CCC(C(=O)Nc1ncc(Cc2ccccc2Cl)s1)N1CCOCC1 (centres unmarked) [compound 223]
++ (“++” means between 25% to 100%),< 10,O=C(Nc1ncc(Cc2ccccc2Cl)s1)C(c1ccccc1)N1CCN(c2ncccn2)CC1 (centres unmarked) [compound 249]
++ (“++” means between 25% to 100%),10 to 25,O=C(Cc1ccccc1)Nc1ncc(Cc2ccc(Cl)cc2)o1 [compound 149]
++ (“++” means between 25% to 100%),< 10,O=C(Nc1nc(-c2ccccc2)cs1)C(c1ccccc1)C1CCCC1 (centres unmarked) [compound 169]
++ (“++” means between 25% to 100%),25 to 60,Cc1csc(NC(=O)C(c2ccccc2)c2ccccc2)n1 [compound 279]
++ (“++” means between 25% to 100%),< 10,CC(C)CC(=O)Nc1ncc(Cc2ccccc2Cl)s1 [compound 206]
++ (“++” means between 25% to 100%),10 to 25,CC(C(=O)Nc1nc(-c2ccccc2)cs1)c1ccccc1 (centres unmarked) [compound 166]
++ (“++” means between 25% to 100%),10 to 25,O=C(Nc1nc(-c2ccc3c(c2)OCO3)cs1)c1ccccc1 [compound 164]
++ (“++” means between 25% to 100%),< 10,O=C(Nc1nc(-c2ccccc2)c(-c2ccccc2)s1)C(c1ccccc1)C1CCCC1 (centres unmarked) [compound 175]
++ (“++” means between 25% to 100%),25 to 60,CN(C)C(Cc1ccccc1)C(=O)Nc1ncc(Cc2ccccc2C#N)s1 (centres unmarked) [compound 277]

% Activity,EC50 [µM],Structure (SMILES)
++ (“++” means between 25% to 100%),< 10,CC(C)C(C(=O)Nc1nc(-c2ccccc2)cs1)c1ccccc1 (centres unmarked) [compound 168]
++ (“++” means between 25% to 100%),25 to 60,N#Cc1ccc(-c2csc(NC(=O)c3ccccc3)n2)cc1 [compound 161]
++ (“++” means between 25% to 100%),10 to 25,CCOC(=O)Cc1csc(NC(=O)C(c2ccccc2)c2ccccc2)n1 [compound 281]
++ (“++” means between 25% to 100%),25 to 60,COc1ccccc1Cc1cnc(NC(=O)C(C)c2ccccc2)o1 (centres unmarked) [compound 182]
++ (“++” means between 25% to 100%),< 10,CCC(C(=O)Nc1ncc(Cc2ccccc2Cl)s1)c1ccc(OC)cc1 (centres unmarked) [compound 270]
+++ (“+++” means >100%),< 10,COC(=O)c1ccccc1C(=O)Nc1nc(-c2ccccc2)c(-c2ccccc2)s1 [compound 178]
++ (“++” means between 25% to 100%),< 10,CCC(C(=O)Nc1ncc(Cc2ccccc2OC)s1)c1ccccc1 (centres unmarked) [compound 136]
++ (“++” means between 25% to 100%),< 10,N#Cc1ccccc1Cc1cnc(NC(=O)C(c2ccccc2)C2CCCC2)s1 (centres unmarked) [compound 260]
++ (“++” means between 25% to 100%),< 10,CC(C)C(C(=O)Nc1nc(-c2ccccc2)c(-c2ccccc2)s1)c1ccccc1 (centres unmarked) [compound 174]
++ (“++” means between 25% to 100%),< 10,CCC(C(=O)Nc1ncc(Cc2ccccc2Cl)s1)N1CCCCC1 (centres unmarked) [compound 225]
++ (“++” means between 25% to 100%),< 10,CCC(C(=O)Nc1nc2cc(C)c(C)cc2s1)c1ccccc1 (centres unmarked) [compound 267]
++ (“++” means between 25% to 100%),25 to 60,CCC(OC)C(=O)Nc1ncc(Cc2ccccc2Cl)s1 (centres unmarked) [compound 219]
++ (“++” means between 25% to 100%),< 10,CCC(C)C(C(=O)Nc1nc(-c2ccccc2)cs1)c1ccccc1 (centres unmarked) [compound 170]
++ (“++” means between 25% to 100%),< 10,CCC(C)C(C(=O)Nc1ncc(Cc2ccccc2Cl)o1)c1ccccc1 (centres unmarked) [compound 191]
+++ (“+++” means >100%),< 10,O=C(Nc1nc(-c2ccc(Cl)cc2)c(-c2ccccc2)s1)c1ccccc1 [compound 165]
++ (“++” means between 25% to 100%),25 to 60,COc1ccccc1Cc1cnc(NC(=O)C2Cc3ccccc32)o1 (centres unmarked) [compound 181]
